# Assay results reported in patent US10940210B2, “BSH complex for boron neutron capture therapy” (National University Corporation Okayama University, priority 2016, dated 2021).
# Key:
# [1] = tested on: glioma cell line U87ΔEGFR; assay: Delivery of complex into a cancer cell, boron concentration in the cell by ICP-AES; assay type: cell-based, human; settings: BSH 2 mM alone or with A6K (hydrochloride salt) 200 μM, 37° C. for 24 hours
# Experimental: Mixing times were 10 minutes, 30 minutes, and 180 minutes. The obtained complex was diluted (pH 7.1 to 7.3) with PBS and added to a glioma cell line U87ΔEGFR in a petri dish. […] Each cell sample obtained by incubating, with the complex, at 37° C. for 3 hours, 12 hours, and 24 hours was subjected to ICP-AES thereby to measure a boron concentration in the cell. […] The incubation time of 12 hours was sufficient. […] The time for mixing with stirring of 10 minutes was sufficient. Increases in the BSH amounts in the cell were detected as an incubation time was extended.
# A6R (TFA salt) and BSH were mixed with stirring by the same method as the method described in the above (1) to prepare a complex. The obtained complex was diluted (pH 7.1 to 7.3) with PBS and added to a glioma cell line U87ΔEGFR in a petri dish. Each cell sample obtained by incubating, with the complex, at 37° C. for 6 hours, 12 hours, and 24 hours was subjected to ICP-AES thereby to measure a boron concentration in the cell.
# The complex containing A6K (hydrochloride salt) and BSH obtained in the above (1) (a molar ratio of A6K (hydrochloride salt):BSH was 1:10) was added to a glioma cell line U87ΔEGFR in a similar procedure to that described in Example 2 (2). The complex was added in an amount in such a way that final concentrations of A6K (hydrochloride salt) and BSH were as shown in FIG. 11. […]
# [2] = tested on: U87ΔEGFR brain tumor; assay: Tumor-specific introduction of BSH in brain tumor model animal, anti-BSH immunohistostaining; assay type: in vivo, mouse; settings: 200 μL tail vein, BSH 20 mM (with A6K 2 mM in complex); 12 hours after administration
# Experimental: Animals used in the present experiment were bred, housed and used in accordance with the procedure approved (approval code: OKU-2016475) by the Animal Care and Use Committee, Okayama University. Tumor-bearing model mice (BALB/C nu/nu, female, 6 to 8 weeks of age, 25 g, Japan SLC, Inc., Shizuoka) were created by directly injecting 3 μL of a U87ΔEGFR cell suspension (1×10^5 cells/μL) into the brain. Two weeks later, 200 μL of the complex containing A6K and BSH (A6K 2 mM/BSH 20 mM) and 200 μL of BSH 20 mM as control experiments were respectively administered from the tail vein (given that a mouse body weight was 20 g, A6K-HCl was converted to 8 mg/kg and BSH was converted to 33.4 mg/kg.)
# The complex used in the experiment (the compound described in Example 4 (1)) was prepared as follows. 70 μL of MQ water was added to 70 μL of A6K 10 mM to adjust to A6K 5 mM. […]
# Twelve hours after administration, the mouse brain was embedded using an embedding medium for a frozen tissue section, tissue tek O.C.T compound. […] After washing, the section was immersed for 2 hours at room temperature in a solution of a donkey anti-mouse antibody (Life Technologies) labelled with Alexa-Fluor 488 (green fluorescence) (20 μg/mL) and a solution of a goat anti-rabbit antibody (Life Technologies) labelled with Alexa-Fluor 555 (red fluorescence) (2 μg/mL). […]
substance,measurement,setting,value
mercaptoundecahydrododecaborate [BSH],intracellular boron concentration,[1],595.2±105.1 ng/10^6 cells
same,location of BSH relative to tumor tissue (HLA-A positive),[2],not different between tumor tissues and normal brain tissues
same,presence of BSH in brain tissue (green fluorescence),[2],weak
